Read-outs that look alike come from different tables or passages of the source.

This note sets out measurements from article PMC8041284, “Tunable Methacrylamides for Covalent Ligand Directed Release Chemistry” (Journal of the American Chemical Society, 2021).

The target in the test is BTK (Homo sapiens, UniProt Q06187). As to the kind of experiment: biochemical.
Setting [1] is: read-out: BTK inhibition (%), 0.75 uM BTK, […] probe 3l, 15 min preincubation.

BTK, sequence (Q06187 402-655 limits assumed): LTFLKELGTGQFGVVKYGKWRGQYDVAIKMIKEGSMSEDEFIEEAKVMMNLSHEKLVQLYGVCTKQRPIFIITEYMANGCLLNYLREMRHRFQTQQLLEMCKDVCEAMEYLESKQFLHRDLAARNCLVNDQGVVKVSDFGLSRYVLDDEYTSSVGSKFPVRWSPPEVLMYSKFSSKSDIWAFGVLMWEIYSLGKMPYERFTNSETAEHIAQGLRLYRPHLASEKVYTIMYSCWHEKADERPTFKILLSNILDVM

As for `Cc1cccc(C)c1OCC(=O)N[C@@H](Cc1ccccc1)[C@@H](O)C[C@H](Cc1ccccc1)NC(=O)[C@H](C(C)C)N1CCCNC1=O` [PCM-0214618], the inhibition (usually the relative decrease from the control value, in per cent) at 10 µM under setting [1] was -21.8%.
Consider `C=CC[N+]1([C@H]2C[C@H]3[C@@H]4CC[C@H]5C[C@H](O)[C@@H](N6CCOCC6)C[C@]5(C)[C@H]4CC[C@]3(C)[C@H]2OC(C)=O)CCCC1` [PCM-0214619], for which, under setting [1], the inhibition at 10 µM is -24.1%.
On the same count and under the same terms, next, `CC(C)OC(=O)OCOP(=O)(CO[C@H](C)Cn1cnc2c(N)ncnc21)OCOC(=O)OC(C)C` [PCM-0214620]: -14.8%; `CN(C)c1cc(NC(=O)CNC(C)(C)C)c(O)c2c1C[C@H]1C[C@H]3[C@H](N(C)C)C(=O)C(C(N)=O)=C(O)[C@@]3(O)C(=O)C1=C2O` [PCM-0214621]: 32.7%.
In the case of `C[C@]12CC[C@H]3[C@@H](CC[C@@]45O[C@@H]4C(O)=C(C#N)C[C@]35C)[C@@H]1CC[C@@H]2O` [PCM-0214622], under setting [1], the inhibition at 10 µM amounted to 13.2%.
On the same count and under the same terms, next, `C[C@@H](c1ncncc1F)[C@](O)(Cn1cncn1)c1ccc(F)cc1F` [PCM-0214624]: 2.3%; `NS(=O)(=O)Cc1noc2ccccc12` [PCM-0214625]: -14.8%.
On the same count and under the same terms, the result for `C=C1/C(=C\C=C2/CCC[C@]3(C)[C@@H]([C@H](C)/C=C/[C@H](C)C(C)C)CC[C@@H]23)C[C@@H](O)C[C@@H]1O` [PCM-0214626] reads 4.1%.
The same measure, in the same setting: next, `CCN1CCN(Cc2ccc(-c3cc4c(N[C@H](C)c5ccccc5)ncnc4[nH]3)cc2)CC1` [PCM-0214628]: 41.4%; `C[C@H]1C[C@H]2[C@@H]3CCC4=CC(=O)C=C[C@]4(C)[C@@]3(F)[C@@H](O)C[C@]2(C)[C@@]1(O)C(=O)CO` [PCM-0214629]: -6.2%.
With `CN1CC(=O)N2[C@H](c3ccc4c(c3)OCO4)c3[nH]c4ccccc4c3C[C@@H]2C1=O` [PCM-0214630], the inhibition at 10 µM under setting [1] is -6.2%.
Still for that read-out and setting: the result for `NC(=O)c1cccc2[nH]c(-c3ccc([C@@H]4CCCN4)cc3F)nc12` [PCM-0214633] reads 17.1%; that for `C[C@@H]1[C@H](O)[C@@H](C)/C=C/C=C/C=C/C=C/C=C/C=C/C=C/[C@H](O[C@@H]2O[C@H](C)[C@@H](O)[C@H](N)[C@@H]2O)C[C@@H]2O[C@](O)(C[C@@H](O)C[C@@H](O)[C@H](O)CC[C@@H](O)C[C@@H](O)CC(=O)O[C@H]1C)C[C@H](O)[C@H]2C(=O)O` [PCM-0214634], -3.1%; that for `CC[C@H]1OC(=O)[C@H](C)[C@@H](O[C@H]2C[C@@](C)(OC)[C@@H](O)[C@H](C)O2)[C@H](C)[C@@H](O[C@@H]2O[C@H](C)C[C@H](N(C)C)[C@H]2O)[C@](C)(OC)C[C@@H](C)C(=O)[C@H](C)[C@@H](O)[C@]1(C)O` [PCM-0214635], 9.3%.
Same read-out and setting: the result for `CC1(C)S[C@@H]2[C@H](NC(=O)[C@H](N)c3ccccc3)C(=O)N2[C@H]1C(=O)O` [PCM-0214636] reads -1.6%; that for `CC(C)[C@H](O)C(=O)N[C@@H](C)C(=O)N[C@@H]1C(=O)N(C)CCc2ccccc21` [PCM-0214637], -3.1%; that for `COC(=O)[C@H]1[C@H]2C[C@@H]3c4[nH]c5cc(OC)ccc5c4CCN3C[C@H]2C[C@@H](OC(=O)c2cc(OC)c(OC)c(OC)c2)[C@@H]1OC` [PCM-0214638], 35%.
On the same count and under the same terms, the result for `CO[C@H]1O[C@@H]2O[C@@]3(C)CC[C@H]4[C@H](C)CC[C@@H]([C@H]1C)[C@@]24OO3` [PCM-0214640] reads 3.1%; that for `C[C@H](CCC(=O)O)[C@H]1CC[C@H]2[C@@H]3[C@@H](O)C[C@@H]4C[C@H](O)CC[C@]4(C)[C@H]3CC[C@]12C` [PCM-0214641], 24.1%; that for `C[C@@H]1CC[C@H]2[C@@H](C)C(=O)O[C@@H]3O[C@@]4(C)CC[C@@H]1[C@]32OO4` [PCM-0214642], 8.6%.
As for `C[C@H]1[C@H](OC(=O)CCC(=O)O)O[C@@H]2O[C@@]3(C)CC[C@H]4[C@H](C)CC[C@@H]1[C@@]24OO3` [PCM-0214643], the inhibition at 10 µM under setting [1] was 6.2%.
Consider `C[C@]12CC[C@@H]3c4ccc(O)cc4CC[C@H]3[C@@H]1CCC2=O` [PCM-0214644], for which the inhibition at 10 µM under setting [1] is -4.8%.
For `O=C(N[C@H](CO)[C@H](O)c1ccc([N+](=O)[O-])cc1)C(Cl)Cl` [PCM-0214645], the inhibition at 10 µM under setting [1] is -8.6%.
Same read-out and setting: next, `C[C@]12CCC(=O)C=C1CC[C@@H]1[C@@H]2[C@@H](O)C[C@@]2(C)[C@H]1CC[C@]2(O)C(=O)CO` [PCM-0214647]: 12.4%; `CC1(C)O[C@@H]2C[C@H]3[C@@H]4CCC5=CC(=O)C=C[C@]5(C)[C@H]4[C@@H](O)C[C@]3(C)[C@]2(C(=O)CO)O1` [PCM-0214648]: 4.8%; `C[C@]12CC[C@@H]3c4ccc(O)cc4CC[C@H]3[C@@H]1CC[C@@H]2O` [PCM-0214649]: 4.1%.
Same read-out and setting: the result for `CO/N=C(\C(=O)N[C@@H]1C(=O)N2C(C(=O)OCOC(=O)C(C)(C)C)=C(/C=C\c3scnc3C)CS[C@H]12)c1csc(N)n1` [PCM-0214651] reads 28%.
On the same count and under the same terms, the result for `CCC(C)(C)C(=O)O[C@H]1C[C@@H](C)C=C2C=C[C@H](C)[C@H](CC[C@@H]3C[C@@H](O)CC(=O)O3)[C@H]21` [PCM-0214653] reads -13.1%; that for `C[C@H](CCC(=O)O)[C@H]1CC[C@H]2[C@@H]3[C@H](O)C[C@@H]4C[C@H](O)CC[C@]4(C)[C@H]3CC[C@]12C` [PCM-0214654], 6.2%.
Turning to `CN=C(NC#N)NCCSCc1nc[nH]c1C` [PCM-0214655], the inhibition at 10 µM under setting [1] was -12.4%.
The same measure, in the same setting: next, `C[C@@H]1O[C@@H](OC[C@H]2O[C@@H](Oc3c(-c4ccc(OCCO)c(OCCO)c4)oc4cc(OCCO)cc(O)c4c3=O)[C@H](O)[C@@H](O)[C@@H]2O)[C@H](O)[C@H](O)[C@H]1O` [PCM-0214656]: -19.5%.
Still for that read-out and setting: next, `C[C@H]1[C@H](C)CC[C@]2(C(=O)O)CC[C@]3(C)C(=CC[C@@H]4[C@@]5(C)CC[C@H](O)C(C)(C)[C@@H]5CC[C@]43C)[C@H]12` [PCM-0214657]: 10.9%.
On to `COC(=O)[C@@H]1[C@H]2C[C@H]3c4[nH]c5ccccc5c4CCN3C[C@@H]2CC[C@@H]1O` [PCM-0214658], for which, under setting [1], the inhibition at 10 µM is -21.8%.
The same measure, in the same setting: the result for `O=C[C@H](O)[C@@H](O)[C@H](O)CO` [PCM-0214661] reads -12.5%; that for `C#C[C@]1(O)CC[C@H]2[C@@H]3CCc4cc(OC)ccc4[C@H]3CC[C@@]21C` [PCM-0214662], 8.6%.
Regarding `C#C[C@]1(OC(C)=O)CC[C@H]2[C@@H]3CCC4=C[C@@H](OC(C)=O)CC[C@@H]4[C@H]3CC[C@@]21C` [PCM-0214663], the inhibition at 10 µM under setting [1] came to 2.3%.
Same read-out and setting: next, `CCCCCCOC(=O)NC(=N)c1ccc(NCc2nc3cc(C(=O)N(CCC(=O)OCC)c4ccccn4)ccc3n2C)cc1` [PCM-0214664]: -14%; `C[C@@H](O)[C@H]1C(=O)N2C(C(=O)OCOC(=O)C(C)(C)C)=C(SC3CN(C4=NCCS4)C3)[C@H](C)[C@H]12` [PCM-0214665]: 4.7%.
Take `C[C@]12CCC(=O)C(O)=C1CC[C@@H]1[C@@H]2CC[C@]2(C)C(=O)CC[C@@H]12` [PCM-0214668]: the inhibition at 10 µM (read-out: BTK inhibition (%)) is -1.4%.
Take `O=c1cc(-c2ccccc2)oc2cc(O)c(O)c(O)c12` [PCM-0214670]: under setting [1], the inhibition at 10 µM amounted to 79.4%.
The same measure, in the same setting: next, `CCO[C@@H]1OC(=O)C[C@@H]1NC(=O)[C@@H]1CCCN1C(=O)[C@@H](NC(=O)c1ccc(N)c(Cl)c1)C(C)(C)C` [PCM-0214671]: -8.6%; `COc1c(O)cc2c(c1O)[C@@H]1O[C@H](CO)[C@@H](O)[C@H](O)[C@H]1OC2=O` [PCM-0214672]: 7%.
Turning to `C[C@@H]1CC[C@H]2[C@@H](C)C(O)O[C@@H]3O[C@@]4(C)CC[C@@H]1[C@]32OO4` (stereo partly drawn) [PCM-0214674], the inhibition at 10 µM under setting [1] is -20.2%.
Take `CC1(C)[C@@H](O)CC[C@]2(C)[C@H]3C(=O)C=C4[C@@H]5C[C@@](C)(C(=O)O)CC[C@]5(C)CC[C@@]4(C)[C@]3(C)CC[C@@H]12` [PCM-0214675]: the inhibition at 10 µM under setting [1] is 4.7%.
On the same count and under the same terms, next, `CC(C)=CCC[C@](C)(O[C@@H]1O[C@H](CO[C@@H]2OC[C@@H](O)[C@H](O)[C@H]2O)[C@@H](O)[C@H](O)[C@H]1O)[C@H]1CC[C@]2(C)[C@@H]1[C@H](O)C[C@@H]1[C@@]3(C)CC[C@H](O[C@@H]4O[C@H](CO)[C@@H](O)[C@H](O)[C@H]4O)C(C)(C)[C@@H]3CC[C@]12C` [PCM-0214676]: 35.8%; `COc1ccc([C@@H]2CC(=O)c3c(O)cc(O[C@@H]4O[C@H](CO[C@@H]5O[C@@H](C)[C@H](O)[C@@H](O)[C@H]5O)[C@@H](O)[C@H](O)[C@H]4O)cc3O2)cc1O` [PCM-0214677]: -7%; `C[C@H](CCC(=O)O)[C@H]1CC[C@H]2[C@@H]3C[C@H](O)[C@@H]4C[C@H](O)CC[C@]4(C)[C@H]3CC[C@]12C` [PCM-0214678]: 3.9%.
On the same count and under the same terms, next, `CC1(C)O[C@H]2CC(=O)OC[C@]23[C@H]2CC[C@@]4(C)[C@H](c5ccoc5)OC(=O)[C@H]5O[C@]54[C@]2(C)C(=O)C[C@@H]13` [PCM-0214679]: -3.9%.
Take `CC1(C)CC[C@]2(C(=O)O)CC[C@]3(C)C(=CC[C@@H]4[C@@]5(C)CC[C@H](O)C(C)(C)[C@@H]5CC[C@]43C)[C@@H]2C1` [PCM-0214680]: under setting [1], the inhibition at 10 µM worked out at 27.2%.
The same measure, in the same setting: next, `C=C1C(=O)[C@]23[C@H](O)[C@H]1CC[C@H]2[C@@]12CO[C@]3(O)[C@@H](O)[C@@H]1C(C)(C)CC[C@@H]2O` [PCM-0214681]: -1.6%; `C=C1C(=O)O[C@H]2[C@H]1CC/C(C)=C/CC[C@@]1(C)O[C@@H]21` [PCM-0214682]: 18.7%; `C=C1C[C@@]2(O)O[C@@]3(C[C@H]2C(C)C)[C@@H](C)CC[C@@H]13` [PCM-0214683]: -1.6%.
The same measure, in the same setting: the result for `CC(C)(O)[C@H]1CC[C@@](C)([C@H]2[C@@H](O)C[C@@]3(C)[C@@H]4C[C@H](O[C@@H]5O[C@H](CO)[C@@H](O)[C@H](O)[C@H]5O)[C@H]5C(C)(C)[C@@H](O[C@@H]6OC[C@@H](O)[C@H](O)[C@H]6O)CC[C@@]56C[C@@]46CC[C@]23C)O1` [PCM-0214684] reads 5.4%; that for `COc1cc(O)cc(O)c1C(=O)C=Cc1ccccc1` [PCM-0214685], 12.5%.
